Experiments:
FoxP3 [1] = test: FoxP3 induction in activated neonatal human cord blood CD4+CD25- naive T cells (RT-PCR, flow cytometry); type: cell-based; settings: for optimal concentration for induction of FoxP3: human cord blood CD4+CD25- T cells; for induction of FoxP3+ T cells by single agent: ATRA 2 nM or TGF-β1 2 ng/ml
Procedure: All-trans-retinoic acid (ATRA), a major vitamin A metabolite, induces FoxP3 expression in T cells. FoxP3 is the master transcription factor for CD4^+CD25^+ regulatory T cells. […] Neonatal human cord blood CD4^+CD25^− naïve T cells were cultured in a T cell activation condition with IL-2 (25 U/ml) and phytohemagglutinin (PHA, 5 μg/m) in the presence or absence of all-trans retinoic acid (ATRA, 2 nM) for 6 days. Naïve CD4^+CD25^− T cells were activated in the absence and presence of ATRA, and examined for expression of FoxP3 mRNA and protein by RT-PCR analysis (FIG. 1A), flow cytometry analysis (FIG. 1B) and dose-dependent induction of FoxP3 by ATRA (FIG. 1C).
As RARα can be induced in T cells in response to ATRA, the function of this receptor in induction of FoxP3 was examined using an RARα antagonist, Ro41-5253. […] FoxP3 protein expression in CD4 T cells, determined by intracellular staining by PE-labeled anti-FoxP3 antibody, is shown as FACS dot plots (FIG. 3A) and graphs (FIG. 3B). Neonatal human cord blood CD4^+CD25^− T cells were cultured in a T cell activation condition with IL-2 (25 U/ml ) and PHA (5 μg/ml) in the presence and absence of indicated agonists or antagonists for 6 days. The concentrations used to obtain the data were 2 nM (ATRA), 1 μM (Ro41-5253), 5 nM (AM-580), and 10 μM (methoprene acid).
TGF-β is a potent inducer of FoxP3 (Chen et al., 2003, J Exp Med). Therefore, the interaction between ATRA and TGF-β in their effects on FoxP3 expression was examined. […] Neonatal human cord blood CD4^+CD25^− T cells were cultured in a T cell activation condition with IL-2 (100 U/ml) and PHA (5 μg/ml) in the presence and absence of indicated agonists or antagonists for 6 days. Ro41-5253 is a RARα antagonist. […] ATRA was used at 2 nM.

FoxP3 [2] = test: FoxP3 induction in mouse DO11.10 (Rag2-/-) CD4+CD25- T cells; type: cell-based; settings: for induction of FoxP3 in mouse T cells: irradiated splenocytes, OVA 323-339 peptide, IL-2 100 U/ml
Procedure: It was determined if ATRA could induce FoxP3 in mouse T cells. […] These CD4^+ CD25^− T cells were cultured in a T cell activation condition (irradiated splenocytes with […] of OVA 323-339 antigen peptide and 100 U/ml of IL-2) in the presence or absence of ATRA. […] Other retinoids such as AM-580 (a RARα agonist) and methoprene acid (a RXR agonist) were also tested.

FoxP3 [3] = test: Conversion of mouse naive T cells into mucosal tissue homing FoxP3+ T cells with ATRA and cytokines; type: cell-based; settings: 6-7 days
Procedure: Also provided is a method with which almost all of naïve T cells can be converted into mucosal tissue homing FoxP3^+ T cells by utilizing ATRA and cytokines. Mouse naïve T cells were cultured with ATRA (1-100 nM), IL-2 (10-1000 U/ml) and TGF-β1 (1-100 ng/ml), together with TCR activators (concanavalin A or PHA at 1-10 μg/ml) for 6-7 days. […] This method reproducibly generates 92-99% pure mucosal tissue homing FoxP3^+ T cells.

granzymes = test: Expression of granzyme A, granzyme B and perforin in induced FoxP3+ T cells; type: cell-based, human; settings: for granzyme A expression in induced FoxP3+ cells: FoxP3+ T cells from cord blood CD4+CD25- T cells
Procedure: Regulatory T cells may use a number of different effector mechanisms to suppress target cells. Granzymes are a class of such effector molecules implicated in regulatory function. […] FoxP3^+ T cells, generated from cord blood CD4^+CD25^− T cells with ATRA, were examined for their expression of granzyme A, granzyme B and perforin. Also included were FoxP3^+T cells, generated with IL-2 (control) or IL-2 (25 U/ml) and TGF-β (2 ng/ml). Expression of granzyme A and B is shown in panel A. Three independent experiments were combined and averages and SEM are shown (panel B).

CD4+CD25- T cells = test: 3H-thymidine incorporation assay: proliferation and suppression of CD4+CD25- target T cells in co-culture; type: cell-based, human; settings: treated 6-7 days
Procedure: ATRA-treated T cells are suppressor cells with unique effector molecules. Generally, regulatory T cells are hypo-proliferative and can suppress the proliferation of target T cells (CD4^+CD25^− T cells) in co-culture. It was therefore determined if the ATRA-induced FoxP3^+ cells had these features. […] Freshly isolated CD4^+CD25^− T cells were cultured with ATRA (2 nM), TGF-p31 (2 ng/ml) or ATRA+TGF-β1 in a T cell activation condition (IL-2 +PHA) for 6-7 days. Then, the T cells were co-cultured with CD4^+CD25^− cells for 5 additional days. A 3H-thymidine incorporation assay was performed to assess the proliferation potentials of the cultures.

RARα = test: RT-PCR of RAR and RXR mRNA expression in CD4+CD25- T cells activated in ATRA; type: cell-based, human; settings: ATRA 2 nM, IL-2 + PHA, 6 days; 6 RAR and RXR receptors
Procedure: RARα, RARβ and RARγ are the major receptors that are likely to mediate the function of ATRA. The mRNA expression of RARs and RXRs in freshly isolated CD4^+CD25^+ and CD4^+CD25^− T cells was determined, as well as in CD4^+CD25^−T cells activated in ATRA. Neonatal human cord blood CD4^+CD25^− naïve T cells were cultured in a T cell activation condition with IL-2 (25 U/ml) and PHA (5 μg/ml) in the presence or absence of ATRA (2 nM) for 6 days. Freshly isolated CD4^÷CD25^+ and CD4^+CD25^− cells are shown for comparison. RT-PCR was performed, and a representative set of results out of 4 independent experiments are shown.

FoxP3 [4] = test: FoxP3 induction in activated neonatal human cord blood CD4+CD25- naive T cells (RT-PCR, flow cytometry); type: cell-based; settings: very high concentration (20 μM), IL-2 + PHA, 6 days
[5] = tested on: α4β7+ mucosal tissue homing FoxP3+ T cells; test: Intestinal FoxP3+ T cell numbers in mice fed food with or without vitamin A; type: in vivo, mouse; settings: 6 weeks
Procedure: Regulation of mucosal FoxP3^+ cell numbers by vitamin A in vivo and in vitro. The in vivo effect of vitamin A on numbers of intestinal FoxP3^+ T cells was determined. Adult mice were fed with food with (control mice) or without vitamin A for 6 weeks, and then the numbers of FoxP3^+ T cells in small and large intestine, and mesenteric lymph nodes were determined by flow analysis (FIG. 11A).

Compound: CC1(C)CCC(C)(C)c2cc(C(=O)Nc3ccc(C(=O)O)cc3)ccc21 [AM-580]
- induction of FoxP3 by RARα-specific agonist (FoxP3 [1]; AM-580 5 nM, IL-2 + PHA, 6 days): able to induce FoxP3
- optimal concentration for induction of FoxP3 (FoxP3 [1]; IL-2 + PHA, 6 days): 5 nM
- induction of FoxP3 in mouse T cells (FoxP3 [2]): good inducer of FoxP3 at low concentrations

Compound: CC1=C(/C=C/C(C)=C/C=C/C(C)=C/C(=O)O)C(C)(C)CCC1 [ATRA, All-trans-retinoic acid]
- T cells after culture that were FoxP3+ regulatory T cells expressing the mucosal tissue homing receptor (FoxP3 [3]; ATRA 1-100 nM, IL-2 10-1000 U/ml, TGF-β1 1-100 ng/ml, TCR activators): ~95%
- purity of mucosal tissue homing FoxP3+ T cells reproducibly generated (FoxP3 [3]; ATRA, IL-2, TGF-β1 and TCR activators): 92-99%
- effect of ATRA added to the culture with TGF-β on FoxP3+ T cell induction (FoxP3 [1]; ATRA 2 nM + TGF-β1 2 ng/ml, IL-2 100 U/ml + PHA, 6 days): enhanced the effect of TGF-β
- induction of FoxP3+ T cells by single agent (FoxP3 [1]; IL-2 100 U/ml + PHA, 6 days): clear effects
- levels of FoxP3 mRNA expression (RT-PCR) (FoxP3 [1]; ATRA 2 nM with IL-2 25 U/ml and PHA, 6 days, versus IL-2 alone): increased compared to IL-2 alone
- FoxP3+ cells at the protein level (flow cytometry) (FoxP3 [1]; ATRA 2 nM with IL-2 and PHA, 6 days, presence versus absence of ATRA): significantly more
- optimal concentration for induction of FoxP3 (FoxP3 [1]; IL-2 + PHA, 6 days): 2 to 10 nM
- granzyme A expression in induced FoxP3+ cells (granzymes): expressed granzyme A
- granzyme B or perforin-expressing cells among induced FoxP3+ cells (granzymes; versus TGF-β induced FoxP3+ cells): Consistently more
- suppressive activity of treated T cells on CD4+CD25- T cells (CD4+CD25- T cells; co-cultured 5 additional days): levels similar to that of TGF-β1-treated cells
- proliferation potential of treated T cells (3H-thymidine incorporation) (CD4+CD25- T cells; compared to fresh CD4+CD25- cells and cultured control cells): low proliferation potential
- induction of FoxP3 in mouse T cells (FoxP3 [2]): induced FoxP3 expression in T cells
- trafficking receptors of mouse FoxP3+ T cells primed in retinoic acid (FoxP3 [2]; mouse DO11.10 T cells): expressed the mucosal tissue homing receptors CCR9 and α4β7
- RAR and RXR family receptor mRNA expression in response to ATRA (RARα): most highly expressed receptor in response to ATRA was RARα

Compound: CCCCCCCOc1cc2c(cc1/C(C)=C/c1ccc(C(=O)O)cc1)C(C)(C)CCS2(=O)=O [Ro41-5253]
- suppression of the FoxP3+ cell induction effect of ATRA (FoxP3 [1]; Ro41-5253 1 μM, ATRA 2 nM, 6 days): completely suppressed
- blocking of ATRA-induced versus TGF-β-induced FoxP3 induction (FoxP3 [1]; Ro41-5253, ATRA 2 nM, TGF-β1 2 ng/ml): blocked only ATRA-induced but not TGF-β-induced FoxP3 induction

Compound: COC(C)(C)CCCC(C)C/C=C/C(C)=C/C(=O)O (centres unmarked) [methoprene acid]
- induction of FoxP3 by pan-RXR agonist (FoxP3 [4]): only marginal effects
- induction of FoxP3 in mouse T cells (FoxP3 [2]): able to induce FOXP3 only at very high concentrations
- optimal dose for induction of FOXP3 in mouse T cells (FoxP3 [2]; mouse DO11.10 T cells): ~100 µM

Compound: TGF-β: a potent inducer of FoxP3 (cytokine)
- induction of FoxP3+ T cells by single agent (FoxP3 [1]; IL-2 100 U/ml + PHA, 6 days): clear effects
- granzyme A expression in induced FoxP3+ cells (granzymes): did not express granzyme A at significant levels

Compound: vitamin A
- numbers of α4β7+ mucosal tissue homing FoxP3+ T cells in the large and small intestines ([5]; vitamin A-deficient food versus control food with vitamin A): significantly smaller numbers
- numbers of FoxP3+ T cells in lymph nodes (MLN) ([5]; vitamin A-deficient food versus control food): no reduction
